Results reported in patent US20150125528A1 (The Water Initiative, LLC, priority 2012, published 2015).

Assay: calcium hypochlorite stability temperature data
Assay type: physicochemical
Details: below approximately 120° C., 15 minute exposure
Description: FIG. 2 illustrates calcium hypochlorite stability temperature data.

Compound: [Ca+2].[O-]Cl.[O-]Cl [calcium hypochlorite]
- free chlorine concentration on heating: maintains its free chlorine concentration
